Source: patent publication US20120093947A1, “METHOD OF TREATING REACTIVE AIRWAY DISEASE” (UNITED STATES DEPARTMENT OF VETERANS AFFAIRS, priority 2009, published 2012)
Like-named read-outs stand apart in the source and are kept apart here.

Tests used:
Type in all cases: biochemical
[1] = target: T1, EPO (Homo sapiens, UniProt P11678); experiment: Nitration of salbutamol by EPO/H2O2/NO2−, A410; conditions: 50 μM salbutamol, 5 mM NaNO2, 2 mM H2O2, 0.075 U/mL EPO, pH 7.0, 60 min, ΔA410 versus control
T1 construct: purchased Calbiochem
Protocol: (§1) Spectrophotometric Measurements. Spectra are measured using an Agilent diode array spectrophotometer model 8453 (Agilent Technologies, Inc., Santa Clara, Calif.). Nitration of salbutamol is studied by measuring absorption spectra at designated time points following the start of the reaction. Samples are prepared in 100 mM phosphate buffers (pH 7.0). All buffers contained DTPA (100 μM) or are pretreated with Chelex-100 before use, and measurements are performed at ambient temperature of 20° C. Typically, the reaction is started by the addition of a small aliquot of H2O2 or the desired peroxidase. Time course measurements are carried out following changes in absorbance at 410 nm in 30 second intervals versus absorbance at 800 nm, where none of the compounds absorb.
(§2) We also examine the effect of methimazole on nitration catalyzed by MPO and EPO. 50 μM of salbutamol is reacted with 0.2 U/mL MPO, 5 mM NaNO2, and 2.1 mM H2O2 at pH buffer 7.0 in the presence of 0, 25, 50, and 100 μM methimazole (shown in FIG. 9, section B, traces a-d, respectively). In contrast to inhibition of nitration by LPO system, which was irreversible, inhibitory action of methimazole on MPO/H2O2/NO2^− is transitory.
The extent of nitration is expressed as a change in ΔA410 versus control (dapsone omitted) taken as 100% after 10, 30, and 60 minute reactions for LPO, MPO, and EPO nitrating systems, respectively. […]

[2] = target: T2, MPO (Homo sapiens, UniProt P05164); experiment: EPR of MNP adducts with radicals from β2-agonists generated by MPO/H2O2; design: Myeloperoxidase (MPO) from human leucocytes (lyophilized powder); purchased Axxora, LLC (San Diego, Calif.); host or cells: human leucocytes (natural source)
Protocol: Formation of free radicals from β2-agonists is studied in samples prepared in 100 mM phosphate buffer (pH 7.0 and 8.0)/DTPA (0.2 mM) (total volume 250 μL) containing MNP, MPO (or LPO) and the agonists. The reaction is initiated by the addition of H2O2 as the last component. In experiments in which H2O2 was generated using glucose (1 mM) and glucose oxidase (3.9 μg/mL), glucose oxidase is added as a last component. The sample is transferred to a flat aqueous EPR cell and recording is started 1 minute after initiation of the reaction. Typically, spectra of MNP adducts are recorded using microwave power 20 mW, modulation amplitude 0.1 mT, receiver gain 2×10^5, conversion time 40.96 ms, time constant 81.92 ms, and scan rate of 10 mT/41.92 s. EPR spectra constitute an average of 5 scans and represent results of typical experiments. Unless stated otherwise, direct EPR measurements (spin traps omitted) of free radicals derived from β2-agonists are performed using conditions similar to those for the detection of MNP adducts. EPR spectra are simulated using WINSIM software developed at NIEHS/NIH (RTP, NC).
The effect of methimazole and dapsone on the formation of free radicals from drugs is studied in phosphate buffers (pH 7.0 and 8.0) containing DTPA (0.2 mM) and MNP (10 mM in dimers). Oxidation is carried out by MPO (0.43 units/mL)/H2O2 (37 μM) and LPO (0.39 μM)/glucose (1 mM)/glucose oxidase (0.8 μg/mL). […]
Table 3, below, summarizes the effects of dapsone and methimazole on EPR spectra of MNP adducts with radicals from fenoterol and terbutaline generated by MPO/H2O2 and LPO/H2O2 systems at a pH of 8.0. Concentrations of MNP spin adducts were calculated as second integrals of the low-field component of the respective spectra and are expressed as % of control samples (no additives). Results equal the means±SE of at least two measurements.
. […] This is consistent with the known inhibitory action of both methimazole and dapsone on LPO activity and only methimazole on MPO activity. Thomas et al. (1994) J. Dent. Res. 73(2):544-55. Results obtained at pH 7.0 qualitatively agree with those at pH 8.0.

[3] = target: T2, MPO; experiment: Nitration of salbutamol by MPO/H2O2/NO2−, A410; design: Myeloperoxidase (MPO) from human leucocytes (lyophilized powder); purchased Axxora, LLC (San Diego, Calif.); host or cells: human leucocytes (natural source); conditions: 50 μM salbutamol; for Nitrophenols, (%) MPO: 5.0 mM NaNO2, 5 mM H2O2, 0.2 U/mL MPO, pH 7.0, 30 min, ΔA410 versus control
Protocol: as §1, §2
The extent of nitration is expressed as a change in ΔA410 versus control (dapsone omitted) taken as 100% after 10, 30, and 60 minute reactions for LPO, MPO, and EPO nitrating systems, respectively. Results equal the means±SE of at least two measurements. In the LPO system, 100 μM of salbutamol, 3.4 mM of NaNO2, 4 mM of H2O2, and 65 nM of LPO is used. In the MPO system, 50 μM of salbutamol, 5.0 mM of NaNO2, 5 mM of H2O2, and 0.2 U/mL of MPO is used. In the EPO system, 50 μM of salbutamol, 5 mM of NaNO2, 2 mM of H2O2, and 0.075 U/mL of EPO is used. All reactions were carried out in pH 7.0 phosphate buffer containing DMSO (5% v/v). The term “nitrophenols” includes nitrosalbutamol (N-Sal) and salbutamol-derived nitrophenol (N—ArOH).

T2 sequence (P05164 279-745 limits assumed): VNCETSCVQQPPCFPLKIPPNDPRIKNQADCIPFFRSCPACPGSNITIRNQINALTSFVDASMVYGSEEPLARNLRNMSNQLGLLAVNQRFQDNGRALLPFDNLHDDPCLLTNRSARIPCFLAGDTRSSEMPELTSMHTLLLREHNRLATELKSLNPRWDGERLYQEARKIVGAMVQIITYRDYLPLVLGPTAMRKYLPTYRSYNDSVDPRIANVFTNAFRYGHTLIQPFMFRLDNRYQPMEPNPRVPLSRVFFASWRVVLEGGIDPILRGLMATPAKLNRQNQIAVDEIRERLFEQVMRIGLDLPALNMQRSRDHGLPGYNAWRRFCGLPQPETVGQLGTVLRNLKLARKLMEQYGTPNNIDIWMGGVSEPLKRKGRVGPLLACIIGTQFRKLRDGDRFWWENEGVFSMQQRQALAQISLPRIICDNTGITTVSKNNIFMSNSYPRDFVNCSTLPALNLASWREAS
T2 sequence (P05164 165-273 limits assumed): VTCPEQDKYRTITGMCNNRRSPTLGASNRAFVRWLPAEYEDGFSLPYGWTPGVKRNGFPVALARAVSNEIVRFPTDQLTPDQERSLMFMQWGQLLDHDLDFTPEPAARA
T1 sequence (P11678 251-715 limits assumed): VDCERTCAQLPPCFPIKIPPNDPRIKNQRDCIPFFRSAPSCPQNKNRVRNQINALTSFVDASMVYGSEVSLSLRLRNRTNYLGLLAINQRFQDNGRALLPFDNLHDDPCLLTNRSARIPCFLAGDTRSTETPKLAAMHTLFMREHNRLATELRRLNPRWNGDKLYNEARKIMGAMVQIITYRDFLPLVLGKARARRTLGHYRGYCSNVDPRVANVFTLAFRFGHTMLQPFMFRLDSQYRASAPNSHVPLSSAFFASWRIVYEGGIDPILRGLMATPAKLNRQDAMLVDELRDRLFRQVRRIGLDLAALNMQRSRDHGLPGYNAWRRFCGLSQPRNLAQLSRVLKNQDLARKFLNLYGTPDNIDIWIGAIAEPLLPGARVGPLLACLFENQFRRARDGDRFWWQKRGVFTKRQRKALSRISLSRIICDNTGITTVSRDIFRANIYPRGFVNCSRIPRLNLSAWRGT
T1 sequence (P11678 140-250 limits assumed): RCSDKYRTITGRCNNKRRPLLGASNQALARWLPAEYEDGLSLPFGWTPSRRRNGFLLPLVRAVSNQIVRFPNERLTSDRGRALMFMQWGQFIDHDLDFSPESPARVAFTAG

| SMILES | Nitrophenols, (%) EPO ([1]; dapsone 140 μM) | Nitrophenols, (%) EPO ([1]; dapsone 300 μM) | Effect on MPO activity (formation of radicals from fenoterol and terbutaline, MPO system) ([2]; inhibitor 1 mM, MPO/H2O2) | Nitrophenols, (%) MPO ([3]; dapsone 100 μM) | Nitrophenols, (%) MPO ([3]; dapsone 250 μM) | Nitrophenols, (%) MPO ([3]; dapsone 500 μM) | Concentration of MNP spin adducts, Fenoterol, +MPO + H2O2, % of control ([2]; fenoterol 0.47 mM, inhibitor 0.86 mM, reagent H2O2 37 μM, pH 8.0) | remaining activity at 860 µM ([2]; fenoterol 0.47 mM, inhibitor 0.86 mM, reagent H2O2 37 μM, pH 8.0, read-out: Concentration of MNP spin adducts, Fenoterol, +MPO + H2O2, % of control) | Concentration of MNP spin adducts, Terbutaline, +MPO + H2O2, % of control ([2]; terbutaline 0.47 mM, inhibitor 0.86 mM, reagent H2O2 37 μM, pH 8.0) | remaining activity at 860 µM ([2]; terbutaline 0.47 mM, inhibitor 0.86 mM, reagent H2O2 37 μM, pH 8.0, read-out: Concentration of MNP spin adducts, Terbutaline, +MPO + H2O2, % of control) | Inhibitory action on nitration of salbutamol by MPO/H2O2/NO2− ([3]; methimazole 25, 50, 100 μM, 0.2 U/mL MPO, 5 mM NaNO2, 2.1 mM H2O2, pH 7.0) |
| --- | --- | --- | --- | --- | --- | --- | --- | --- | --- | --- | --- |
| Nc1ccc(S(=O)(=O)c2ccc(N)cc2)cc1 [Dapsone, diamino-diphenyl sulfone] | 57% | 34 ± 2% | only a minimal effect | 66.3 ± 0.6% | 56.0 ± 1.3% | 44.2 ± 3.0% | – | – | – | – | – |
| Cn1cc[nH]c1=S [Methimazole, 1-methyl-3H-imidazole-2-thione] | – | – | – | – | – | – | inhibitory | 22.4 ± 0.6% | inhibitory | 33.5 ± 3.5% | transitory |
